From patent US20240189294A1, “METHOD FOR REGULATING SEBACEOUS GLAND” (BUDDHIST TZU CHI MEDICAL FOUNDATION, priority 2021, published 2024)
Entries after “also recorded” stand apart in the source; their conditions may differ.

Assays:
[1] = system: hair follicles; assay: Topical application of CK1 inhibitors on shaved back skin of wild-type mice: hair growth phenotype and H&E staining (hair cycle phase); assay type: in vivo, C57BL/6J mice; conditions: topical 0.04 mg every other day, total 0.12 mg per 1 cm^2, mice 8 weeks old; for hair growth on the back skin (phenotype): three times, N=3, FIG. 5B; for hair cycle phase, H&E staining of back skin: FIG. 5C
Protocol: K14-Cr-ERT2-CK1α^fl/fl mice, Mc1r^549del mice and Mc1r^549del mice with CK1α ablation in keratinocytes (CK1α^−/−Mc1r^549del) were collaboratively generated in National Laboratory Animal Center (NLAC) in Tainan, Taiwan, and wild type C57BL/6J mice were also purchased from NLAC. Experiments and animal caring were performed in the Laboratory Animal Center, Tzu Chi University, Hualien, Taiwan, with the approval of Animal Care Committee in accordance with legal and ethical standards. Both male and female mice were used. The hair cycle in wild C57BL/6J mice is related to the age; weeks 4 to 6 are an anagen phase, weeks 6 to 7 are a catagen phase, and weeks 7 to 12 are a telogen phase.
A51 is a gift from Dr. Yinon Ben-Nerian's lab (which was published in Cell, Volume 175, Issue 1, 20 Sep. 2018, pages 171-185). For topical application onto mouse skin, 1 mg of CKI was dissolved in 6 μL dimethyl sulfoxide (DMSO) and mixed with 54 μL of vehicle which contained 60% of white wax and 40% of paraffin oil. The final working concentration is 0.1 mg/cm^2.
D4476 was purchased from Sigma Aldrich (#D1944). For topical application onto mouse skin, 4 mg of CKI was dissolved in 1 mL DMSO as the stock. 10 μL stock was mixed with 40 μL of vehicle which contained 60% of white wax and 40% of paraffin oil. The final working concentration is 0.04 mg/cm^2.
IC261 was purchased from Sigma Aldrich (#40090). For topical application onto mouse skin, 4 mg of CKI was dissolved in 1 mL DMSO as the stock. 10 μL stock was mixed with 40 μL of vehicle which contained 60% of white wax and 40% of paraffin oil. The final working concentration is 0.04 mg/cm^2.
(§1) Mice at 8 weeks old were shaved to remove hair on back skin and cleaned with 75% ethanol. Topical CKIs were applied on the back skin 3 times in one week, and the tissue was harvested on day 7, day 14 and some on day 28 after application of CKIs. The tissue was analyzed by the methods described below.
(§2) Skin samples were harvested at indicated timings for tissue analysis. Paraffin-embedded specimens were cut into 5-μm sections. After deparaffinization (with tissue slides being soaked in xylene three times, each time for 5 min) and rehydration (with slides being incubated in the following graded series of ethanol: 100%, 100%, 95%, 90% and 70%, 5 min each), the slides were rinsed with distilled water for 5 min.
For histopathology by H&E staining, skin tissues were fixed overnight in 10% neutral buffered formalin at 4° C. and then transferred to 70% ethanol before being processed and embedded in paraffin. Paraffin sections were then stained with H&E.

[2] = system: hair follicle pigmentation; assay: Fontana-Masson staining of hair follicle pigmentation after topical CK1 inhibitor; assay type: in vivo, C57BL/6J mice; conditions: topical 0.04 mg every other day, total 0.12 mg per 1 cm^2, mice 8 weeks old (telogen); FIG. 5E
Protocol: as §1, §2
Fontana-Masson staining and H&E staining were performed by using the kit from ScyTek Laboratories, Inc. according to the manufacturer's instructions.
Briefly, for Fontana-Masson staining, a freshly mixed ammoniacal silver solution was placed in a 58° C. to 60° C. water bath and allowed to equilibrate. The slides were incubated in a warmed ammoniacal silver solution for 30 to 60 min or until the tissue sections became yellow/brown in color, and were then rinsed with distilled water for 3 to 5 seconds (s). The slides were incubated in a gold chloride solution (0.2%) for 30 s and were then rinsed with distilled water for 3 to 5 s. […]

[3] = system: β-catenin; assay: Immunohistochemical staining of β-catenin in back skin after topical CK1 inhibitor; assay type: in vivo, C57BL/6J mice; conditions: topical 0.04 mg every other day, total 0.12 mg per 1 cm^2, mice 8 weeks old; FIG. 5D
Protocol: as §1, §2
Paraffin sections were incubated in a humidity chamber for 15 min at 60° C. Sections were deparaffinized in two changes of xylene for 5 min each and hydrated in two changes of 100% ethanol for 5 min each, then in 95% and 80% ethanol for 5 min each, and finally rinsed in distilled water. Antigen retrieval was enhanced by microwaving the slides in a citrate buffer (DAKO; pH 6.0) for 20 min. Endogenous peroxidase activity was quenched with 3% hydrogen peroxide in methanol. After blocking, sections were incubated overnight at 4° C. with β-catenin antibody (1/100; BD Bioscience). Secondary antibodies used were horseradish peroxidase (HRP)-polymer anti-mouse antibodies (Nichirei). […]

[4] = system: c-Myc; assay: Western blot of c-Myc in SZ95 cells; assay type: cell-based, human; conditions: IC261 at different concentrations vs DMSO, FIG. 8C
Protocol: (§3) For experiments involving tissues, the tissues were homogenized and lysed in 1× tissue protein extraction reagent (Thermo Fisher) containing protease inhibitor (Millipore) and kept on ice; for experiments involving cells, cell pellet was collected and lysed in 1×radioimmunoprecipitation assay (RIPA) lysis buffer containing protease inhibitor (Millipore) and kept on ice. The total protein concentration was determined using Protein Assay Dye Reagent Concentrate (Bio-Rad) following manufacturer's instruction with a microplate reader. Sample was diluted in SDS-PAGE Sample Buffer (Bio-Rad) and heated at 95° C. for 5 minutes. The protein sample was then resolved on SDS-PAGE gels (TGX FastCast acrylamide solutions, Bio-Rad) and transferred onto poly(vinylidene fluoride) (PVDF) membranes (Millipore). 5% BSA was used, and then the membranes were incubated with primary antibodies overnight at 4° C. The membranes were then washed by Tris-buffered saline with Tween 20 (TBST) and incubated with secondary antibodies for 1 hour at room temperature. The signal was detected using iBright FL1000 Imaging System from Thermo Fisher Scientific.
(§4) The antibodies used in immunohistochemistry (IHC) and Western blotting (WB) in this disclosure were listed in Table 1 below, where manufacturers, catalogue number and the dilution ratio used were provided. […]

[5] = system: SZ95 cells (human sebocyte cell line); assay: WST-1 assay in SZ95 cells; assay type: cell-based; conditions: 1.5×10^4 cells/well, treated for 24 hr, FIG. 8B
Protocol: SZ95 cells (human sebocyte cell line) were maintained in Sebomed basal Medium (Sigma) supplemented with 10% FBS and 5 ng/mL epidermal growth factor under standard cell culture conditions of 37° C. and 5% CO2.
WST-1 assay. Seeding cells with density 1.5×10^4 cells/well in 96-well plate, incubate overnight. Remove medium and add 100 μL fresh medium contain various amount of IC261 (1, 50, 100, 200, 500, 1000 nM) in each well, incubate for 24 hr. Add 10 μL/well WST-1, incubate for 4 hr. Measure the absorbance of OD 450 nm and OD 655 nm by ELISA reader.

[6] = system: PPARγ; assay: Western blot of PPARγ in SZ95 cells; assay type: cell-based, human; conditions: IC261 at different concentrations vs DMSO, FIG. 8C
Protocol: as §3, §4

[7] = system: LC3B; assay: Western blot of LC3B (autophagy marker) in SZ95 cells; assay type: cell-based, human; conditions: FIG. 8D
Protocol: as §3, §4

Structure (SMILES)	hair growth on the back skin (phenotype) [1]	hair cycle phase, H&E staining of back skin [1]	hair follicle pigmentation, Fontana-Masson staining [2]	expression of β-catenin, immunohistochemical staining [3]	c-Myc expression (biomarker for undifferentiated sebocytes) [4]	IC50 [5] [nM]	PPARγ expression (biomarker for adipogenesis) [6]	LC3B expression (marker for autophagy) [7]
NC(=O)c1ccc(-c2nc(-c3ccc4c(c3)OCCO4)c(-c3ccccn3)[nH]2)cc1 [D4476]	significantly induced hair growth	induces an anagen phase of the hair cycle	induce hair follicle growth and pigmented hair formation; also recorded: Heavily pigmented hair follicles and shafts	increased the expression of β-catenin in the matrix of hair follicle				
COc1cc(OC)c(C=C2C(O)=Nc3ccccc32)c(OC)c1 [IC261]	significantly induced hair growth	induces an anagen phase of the hair cycle	induce hair follicle growth and pigmented hair formation; also recorded: Heavily pigmented hair follicles and shafts	increased the expression of β-catenin in the matrix of hair follicle	increased	~476	decreased	increase with a dose dependent manner
